Experimental data: patent publication US5159085A, “2-anilino phenylacetic acid derivatives as inhibitors of PLA2 and lipoxygenase” (American Home Products Corporation, priority 1991, dated 1992)

Experiments:
[1] = test system: LTB4 synthesis by rat glycogen-elicited polymorphonuclear leukocytes (lipoxygenase); test: Inhibition of LTB4 synthesis by rat glycogen-elicited polymorphonuclear leukocytes (PMN); type: cell-based, rat (female Wistar); details: Leukocyte, A 23187 and exogenous AA; for inhibition at 0.5 µM: negative value denotes potentiation
From the text: This is especially true with respect to 5,12-diHETE, which is also denoted as LTB4 [see Ford-Hitchinson, J. Roy. Soc. Med., 74, 831 (1981)]. Compounds which inhibit the PLA2 -mediated release of arachidonic acid thereby effectively prevent the oxidation of arachidonic acid to the various leukotriene products via the lipoxygenase cascade. Accordingly, the specificity of action of PLA2 inhibitors can be determined by the activity of test compounds in this assay, which measures the ability of compounds to inhibit the synthesis of LTB4 by rat glycogen-elicited polymorphonuclear leukocytes (PMN) in the presence of exogenous substrate.
(§1) The assay is carried out as follows:
(§2) Rat polymorphonuclear leukocytes (PMNs) are obtained from female Wistar rats (150-200 g) which receive an injection of 6% glycogen (10 ml i.p.). Rats are sacrificed 18-24 hours post injection by CO2 asphyxiation and the elicited cells are harvested by peritoneal lavage using physiological saline (0.9% NaCl). The exudate is centrifuged at 400×g for 10 minutes. The supernatant fluid is discarded and the cell pellet is resuspended to a concentration of 2.0×10^7 cells/ml in HBSS containing Ca^++ and Mg^++ and 10 μM L-cysteine.
(§3) To 1 ml aliquots of cell suspension, test drugs or vehicle are added, then preincubated at 37° C. for 10 minutes. A 23187 (1 μM), [^3 H]-AA (3.0 μCi/ml) and unlabeled AA (1 μM) are then added and the samples are further incubated for 10 minutes. The reaction is terminated by centrifugation and pelleting cells. Supernatants are then analyzed by HPLC analysis on a 15 cm×4.6 mm ID supelcosil LC-18 (Supelco)(3M) column, using a two solvent system at a flow rate of 1.4 ml total flow as follows:
Gradient: (system is equillibrated with Solvent A)
(§4) Percent solvent changes are accomplished in a linear fashion.
(§5) Injections: 150 μl of each supernatant is injected directly onto column and ^3 H arachidonic acid metabolites are monitored using an on-line radioactivity detector (Ramona, IN/US, Fairfield, NJ).
(§6) Standards: 10^4 -2.0×10^4 dpm of eicosanoids of interest are injected in 90 μl EtOH cocktail.
(§7) Co-chromatography with standard [^3 H] leukotriene B4 (LTB4) in medium of stimulated PMN exposed to drug is compared to that found in medium of stimulated cells exposed to no drug, generating percent inhibition.
(§8) Results are expressed as percent inhibition at a given compound dose or as an IC50 value.

[2] = test system: TxB2 synthesis (cyclooxygenase) by rat glycogen-elicited polymorphonuclear leukocytes; test: Inhibition of TxB2 synthesis by rat glycogen-elicited PMN (cyclooxygenase); type: cell-based, rat (female Wistar); details: Rattus norvegicus, Leukocyte; for inhibition at 0.5 µM: negative values denote potentiation of cyclooxygenase
Experimental: as §2, §3, §4, §5, §6, §7, §8
In this assay, the procedure of Example 19 is carried out as described. However, in order to determine cyclooxygenase activity, the samples are co-chromatographed with authentic reference [^3 H]-TxB2.
The results are calculated as in Example 19 and presented below: […]

human platelet PLA2 = molecular target: T1, human platelet PLA2 (Homo sapiens, UniProt P14555); test: In vitro isolated phospholipase A2 assay, human platelet PLA2 (arachidonic acid release from 3H-AA E. coli substrate); type: biochemical; details: 10 μM; human platelet; negative values denote potentiation; read-out: % Inhibition at 10 μM HP
T1 construct: Semipurified human platelet acid extract PLA2; from tissue; host or cells: human platelets (semipurified acid extract)
T1 sequence (P14555 21-144): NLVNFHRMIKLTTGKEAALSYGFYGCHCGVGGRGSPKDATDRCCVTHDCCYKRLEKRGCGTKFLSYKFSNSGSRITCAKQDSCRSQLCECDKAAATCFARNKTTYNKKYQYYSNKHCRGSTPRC

[3] = molecular target: T2, human synovial fluid PLA2 (Homo sapiens, UniProt P14555); test: In vitro isolated phospholipase A2 assay, human synovial fluid PLA2; type: biochemical; details: 10 μM; human synovial fluid; negative values denote potentiation; read-out: % Inhibition at 10 μM HSF
T2 construct: Purified human synovial fluid; from tissue; host or cells: human synovial fluid
T2 sequence (P14555 21-144): T1 sequence (P14555 21-144)
Experimental: The compounds of the invention are tested in an in vitro isolated phospholipase A2 assay to determine the ability of the test compounds to inhibit the release of arachidonic acid from an arachidonic acid-containing substrate by the action of phospholipase A2 enzyme from human and non-human sources.
(§9) This assay is carried out as follows:
Into a 15 mL polypropylene tube are added the following:
*pre-incubate at room temperature 30 min prior to substrate addition.
^5 Stock 10 mM prepared in dimethyl sulfoxide. Make 1:2 dilution with
dimethyl sulfoxide and add 1 μ L to 100 μL assay tube.
^6 Two human PLA2 enzymes are used:
b) Purified human synovial fluid.
Incubate the 100 μL reaction mixture for 10 minutes at 37° C. in a shaking water bath. The reaction is terminated by the addition of 2 mL tetrahydrofuran, followed by vortexing. NH2 columns (100 μg/mL--Analytichem International) are conditioned with 0.5 mL tetrahydrofuran followed by 0.5 mL tetrahydrofuran/water (2 mL:0.1 mL, v/v).
The sample is loaded onto the columns and slowly drawn through them. The hydrolyzed arachidonic acid retained in the columns is eluted therefrom with 1 mL tetrahydrofuran/glacial acetic acid (2%). The arachidonic acid is transferred to scintillation vials and quantitated by β-counting analysis. A "total counts" sample is prepared by pipetting 25 μL ^3 H-arachidonate E. coli directly into a scintillation vial to which is added 1 mL tetrahydrofuran. 10 mL aquasol (scintillation cocktail) is added to all samples. [formula]

[4] = test system: paw edema induced by exogenous PLA2 (snake, A. piscivorus piscivorus); test: In vivo PLA2 murine paw edema assay; design: species or system mouse (male CD-1)
Experimental: The ability of the compounds of the invention to inhibit paw edema induced by the exogenous administration of PLA2 is measured in the in vivo PLA2 murine paw edema assay.
as §1
Non-fasted, male CD-1 mice (8 weeks old; 31-36 grams) are placed in plastic boxes in groups of six. The right hind paw volume is measured using mercury plethysmography (zero time). […] A solution of purified PLA2, from the diamond back cotton mouth snake (A. piscivorus piscivorus) is prepared in saline at a concentration of 6 μg/ml. Fifty (50) μl (0.3 μg) of this PLA2 solution is injected subcutaneously into the right hind paw with a plastic 1 ml plastic syringe (27 gauge, 1" needle). Paw volume of the injected paw is measured again at 10 minutes, 30 minutes and 60 minutes after PLA2 injection. Animals are euthanized with CO2 at the completion of the study.
The paw edema is calculated by subtracting the zero time volume from the volume recorded at each time period. Mean paw edema for each treatment group is then calculated and expressed as (μl±S.E.). Drug effects are expressed as a percent change from control (vehicle) values. Statistical significance is determined by a one-way analysis of variance with LSD comparison to control (p<0.05). ED50 's are determined using repression analysis.

LTC4 = test: In vivo murine zymosan peritonitis assay, LTC4 (lipoxygenase pathway); design: species or system mouse (male CD-1); details: p.o., mouse, standard drugs
Experimental: The compounds of the invention are evaluated for their ability to inhibit the lipoxygenase and/or cyclooxygenase pathways of arachidonic acid metabolism in the in vivo murine zymosan peritonitis assay.
as §9
Male CD-1 mice (8 weeks old) are placed in plastic boxes in groups of six. Animals are injected with 1 ml i.p. of either 1% zymosan in pyrogen free 0.9% saline or saline (unstimulated control). Compounds are dosed orally 1 hour prior to zymosan injection. Twenty minutes after zymosan injection, the mice are asphyxiated by CO2 inhalation and the peritoneal cavity is lavaged with 2 ml ice cold Hanks Balanced Salt Solution (HBSS) without CaCl2, MgSO4 ·7H2 O and MgCL2 ·6H2 O. Peritoneal lavage fluid from each mouse is removed by syringe and placed in 5 ml plastic test tubes put on ice and volume is noted. Preparation of samples for evaluation by ELISA is as follows: Samples are centrifuged at 800×g for 15 minutes; 1 ml of the supernatant is added to 8 ml ice cold methanol and kept at -70° C. overnight to precipitate protein; and samples are then centrifuged at 800×g for 15 minutes, followed by a drying procedure in a Savant speed vac concentrator. The samples are reconstituted with 1 ml ice cold ELISA buffer and stored at -70° C. until assayed. The assay for eicosanoids (LTC4 and 6-keto-PGF1α) is performed according to conventional ELISA procedures.
Compounds to be tested orally are suspended in 0.5% Tween 80. Compounds to be tested intraperitoneally are suspended in 0.5% methylcellulose in 0.9% saline.
The total metabolite level in lavage fluid/mouse is calculated and the significance is determined by a one-way analysis of variance with LSD comparisons to control (p≤0.05). Drug effects are expressed as a percent change from control values.

COC(=O)Cc1cc(OCc2ccc3ccccc3c2)ccc1Nc1c(Cl)cccc1Cl [Example 7, 2-[(2,6-Dichlorophenyl)amino]-5-[(2-naphthalenyl)-methoxy]benzene acetic acid methyl ester]
inhibition at 10 µM [1]: 34%
inhibition at 0.5 µM [2]: -26%
inhibition at 10 µM (human platelet PLA2): 3.6%
inhibition at 10 µM [3]: -65.4%
% Change in Edema 10 min ([4]; 1 mg/kg i.p.): -54%
% Change in Edema 10 min ([4]; 10 mg/kg i.p.): -32%
% Change in Edema 30 min ([4]; 10 mg/kg i.p., 30 min): -39%
change in vivo at 1 mg/kg ([4]; Mus musculus, ip, 0.5 h, 1 mg/kg i.p., 30 min): -44%

O=C(O)Cc1cc(OCc2ccc3ccccc3c2)ccc1Nc1c(Cl)cccc1Cl [Example 8, acetic acid]
inhibition at 0.5 µM [1]: 67%
inhibition at 0.5 µM [2]: 30%
inhibition at 10 µM (human platelet PLA2): -3.9%
inhibition at 10 µM [3]: 42.5%
% Change in Edema 10 min ([4]; 10 mg/kg i.p.): -28%
% Change in Edema 30 min ([4]; 10 mg/kg i.p., 30 min): -43%
% Change in Edema 60 min ([4]; 10 mg/kg i.p.): -47%
% Change in Edema 10 min ([4]; 50 mg/kg p.o.): +35%
% Change in Edema 30 min ([4]; 50 mg/kg p.o., 30 min): -37%
% Change in Edema 60 min ([4]; 50 mg/kg p.o.): -24%

O=C(O)Cc1cc(OCCCCOc2ccccc2)ccc1Nc1c(Cl)cccc1Cl [Example 9, 2-[(2,6-Dichlorophenyl)amino]-5-[(4-phenoxy)butoxy]benzene acetic acid]
inhibition at 0.5 µM [1]: 16%
inhibition at 10 µM [1]: 100%
inhibition at 0.5 µM [2]: 38%
inhibition at 10 µM ([2]; at 10 μM): 100%
inhibition at 10 µM (human platelet PLA2): 2.2%
inhibition at 10 µM [3]: 15.7%
% Change in Edema 3 min ([4]; 10 mg/kg i.p.): -41%
% Change in Edema 10 min ([4]; 10 mg/kg i.p.): -54%
% Change in Edema 30 min ([4]; 10 mg/kg i.p., 30 min): -32%
% Change in Edema 3 min ([4]; 50 mg/kg p.o.): +37%
% Change in Edema 10 min ([4]; 50 mg/kg p.o.): -12%
% Change in Edema 30 min ([4]; 50 mg/kg p.o., 30 min): -4%

CC(C)Cc1ccc(C(C)C(=O)O)cc1 (centres unmarked) [Ibuprofen, reference compound]
ED50 LTC4 (LTC4): Not Active

COc1ccc2c(c1)c(CC(=O)O)c(C)n2C(=O)c1ccc(Cl)cc1 [Indomethacin, reference compound]
ED50 LTC4 (LTC4): Not Active
